Assay results taken from US9346809B2 (LEO PHARMA A/S, priority 2009, dated 2016).
pEC50: −log10 of the molar value.

Key:
Format in all cases: biochemical
[1] = target: T1, JAK3 (catalytic domain, His-tag) (Homo sapiens, UniProt P52333); assay: JAK kinase assay (HTRF, phosphorylation of TK substrate-biotin), JAK3; settings: HTRF assay, ATP at Km (2 μM); read-out: JAK3 kinase inhibitory activity (EC50 indicator)
T1 construct: All four purified enzymes contain only the catalytic domain; His (N); purchased Carna Biosciences, Inc; host or cells: baculovirus expression system
Procedure, shortened: (§1)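 Compound was mixed with TK substrate-biotin (1 μM final), then kinase plus ATP at its Km was added and left 20-30 min at room temperature. Detection mix with EDTA, Streptavidin-XL665 and STK Ab Cryptate stopped the reaction; after overnight dark incubation, HTRF was read and EC50 derived.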

[2] = target: T2, JAK1 (aa 850-1154, catalytic domain, GST-tag) (Homo sapiens, UniProt P23458); assay: JAK kinase assay (HTRF, phosphorylation of TK substrate-biotin), JAK1; settings: HTRF assay, ATP at Km (7 μM); read-out: JAK1 kinase inhibitory activity (EC50 indicator)
T2 construct: JAK1 (aa 850-1154) and TYK2 (aa 871-1187) are expressed with an N-terminally fused GST-tag; GST (N); purchased Carna Biosciences, Inc; host or cells: baculovirus expression system
Procedure, shortened: as §1

[3] = target: T3, JAK2 (catalytic domain, His-tag) (Homo sapiens, UniProt O60674); assay: JAK kinase assay (HTRF, phosphorylation of TK substrate-biotin), JAK2; settings: HTRF assay, ATP at Km (4 μM); read-out: JAK2 kinase inhibitory activity (EC50 indicator)
T3 construct: All four purified enzymes contain only the catalytic domain; His (N); purchased Carna Biosciences, Inc; host or cells: baculovirus expression system
Procedure, shortened: as §1

[4] = target: T4, TYK2 (aa 871-1187, catalytic domain, GST-tag) (Homo sapiens, UniProt P29597); assay: JAK kinase assay (HTRF, phosphorylation of TK substrate-biotin), TYK2; settings: HTRF assay, ATP at Km (13 μM); read-out: TYK2 kinase inhibitory activity (EC50 indicator)
T4 construct: JAK1 (aa 850-1154) and TYK2 (aa 871-1187) are expressed with an N-terminally fused GST-tag; GST (N); purchased Carna Biosciences, Inc; host or cells: baculovirus expression system
T4 sequence (P29597 871-1187): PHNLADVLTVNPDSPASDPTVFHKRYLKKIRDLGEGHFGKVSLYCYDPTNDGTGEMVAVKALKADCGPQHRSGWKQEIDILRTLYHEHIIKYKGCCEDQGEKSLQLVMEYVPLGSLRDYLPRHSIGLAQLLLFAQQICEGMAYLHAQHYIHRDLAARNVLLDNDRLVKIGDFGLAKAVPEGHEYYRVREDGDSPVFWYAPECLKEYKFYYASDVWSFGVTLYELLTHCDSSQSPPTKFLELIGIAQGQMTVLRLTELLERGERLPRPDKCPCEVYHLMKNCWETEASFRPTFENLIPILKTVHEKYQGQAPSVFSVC
Procedure, shortened: as §1

T3 sequence (O60674 849-1124 limits assumed): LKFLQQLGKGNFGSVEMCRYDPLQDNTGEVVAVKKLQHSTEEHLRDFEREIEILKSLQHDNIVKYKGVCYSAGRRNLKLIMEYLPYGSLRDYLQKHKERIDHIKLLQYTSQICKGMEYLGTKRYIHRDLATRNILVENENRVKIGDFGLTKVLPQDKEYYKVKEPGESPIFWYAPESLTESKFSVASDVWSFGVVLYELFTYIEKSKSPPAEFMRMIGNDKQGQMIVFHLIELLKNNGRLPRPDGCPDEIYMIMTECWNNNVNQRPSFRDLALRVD
T2 sequence (P23458 850-1154): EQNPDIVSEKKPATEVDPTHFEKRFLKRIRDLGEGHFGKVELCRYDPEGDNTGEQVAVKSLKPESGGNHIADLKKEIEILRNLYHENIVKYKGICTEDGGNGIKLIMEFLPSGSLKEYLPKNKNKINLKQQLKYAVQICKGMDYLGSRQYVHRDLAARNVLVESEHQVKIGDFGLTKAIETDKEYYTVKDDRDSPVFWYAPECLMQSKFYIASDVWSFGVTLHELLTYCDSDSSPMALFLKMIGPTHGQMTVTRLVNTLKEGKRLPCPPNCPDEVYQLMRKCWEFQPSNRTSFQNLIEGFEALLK
T1 sequence (P52333 822-1111 limits assumed): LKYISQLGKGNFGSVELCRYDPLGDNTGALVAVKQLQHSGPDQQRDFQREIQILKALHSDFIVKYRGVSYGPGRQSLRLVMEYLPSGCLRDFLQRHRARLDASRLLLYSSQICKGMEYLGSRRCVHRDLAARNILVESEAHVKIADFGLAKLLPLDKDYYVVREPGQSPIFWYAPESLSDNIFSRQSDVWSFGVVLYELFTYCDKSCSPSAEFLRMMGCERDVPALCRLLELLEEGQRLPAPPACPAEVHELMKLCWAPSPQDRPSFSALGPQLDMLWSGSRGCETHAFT

Compound	pEC50 [1]	pEC50 [2]	pEC50 [3]	pEC50 [4]
Cc1sc(C(=O)N2CCN(c3ncnc4[nH]ccc34)CC23CC3)cc1Br [Example 208, (4-Bromo-5-methyl-thiophen-2-yl)-[7-(7H-pyrrolo[2,3-d]pyrimidin-4-yl)-4,7-diaza-spiro[2.5]oct-4-yl]-methanone]	> 7.00	> 7.00	> 7.00	> 7.00
CCc1sc(C(=O)N2CCN(c3ncnc4[nH]ccc34)CC23CC3)cc1Br [Example 209, (4-Bromo-5-ethyl-thiophen-2-yl)-[7-(7H-pyrrolo[2,3-d]pyrimidin-4-yl)-4,7-diaza-spiro[2.5]oct-4-yl]-methanone]	6.30 to 7.00	> 7.00	> 7.00	> 7.00
CCS(=O)(=O)Nc1ccc(C(=O)N2CCN(c3ncnc4[nH]ccc34)CC23CC3)cc1 [Example 210, Ethanesulfonic acid {4-[7-(7H-pyrrolo[2,3-d]pyrimidin-4-yl)-4,7-diaza-spiro[2.5]octane-4-carbonyl]-phenyl}-amide]	> 7.00	> 7.00	> 7.00	> 7.00
O=C(c1cccs1)N1CCN(c2ncnc3[nH]ccc23)CC12CC2 [Example 211, [7-(7H-Pyrrolo[2,3-d]pyrimidin-4-yl)-4,7-diaza-spiro[2.5]oct-4-yl]-thiophen-2-yl-methanone]	> 7.00	> 7.00	> 7.00	6.30 to 7.00
COc1cc(OC)cc(C(=O)N2CCN(c3ncnc4[nH]ccc34)CC23CC3)c1 [Example 213, (3,5-Dimethoxy-phenyl)-[7-(7H-pyrrolo[2,3-d]pyrimidin-4-yl)-4,7-diaza-spiro[2.5]oct-4-yl]-methanone]	6.30 to 7.00	> 7.00	> 7.00	6.30 to 7.00
N#Cc1ccc2[nH]c(C(=O)N3CCN(c4ncnc5[nH]ccc45)CC34CC4)cc2c1 [Example 217, 2-[7-(7H-Pyrrolo[2,3-d]pyrimidin-4-yl)-4,7-diaza-spiro[2.5]octane-4-carbonyl]-1H-indole-5-carbonitrile]	> 7.00	> 7.00	> 7.00	6.30 to 7.00
O=C(c1ccc2c(c1)CCCC2)N1CCN(c2ncnc3[nH]ccc23)CC12CC2 [Example 218, [7-(7H-Pyrrolo[2,3-d]pyrimidin-4-yl)-4,7-diaza-spiro[2.5]oct-4-yl]-(5,6,7,8-tetrahydro-naphthalen-2-yl)-methanone]	< 6.30	> 7.00	> 7.00	< 6.30
N#Cc1ccc(C(=O)N2CCN(c3ncnc4[nH]ccc34)CC23CC3)cc1F [Example 219, 2-Fluoro-4-[7-(7H-pyrrolo[2,3-d]pyrimidin-4-yl)-4,7-diaza-spiro[2.5]octane-4-carbonyl]-benzonitrile]	6.30 to 7.00	> 7.00	> 7.00	6.30 to 7.00
O=C(c1ccccn1)N1CCN(c2ccnc3[nH]ccc23)CC12CC2 [Example 222, Pyridin-2-yl-[7-(1H-pyrrolo[2,3-b]pyridin-4-yl)-4,7-diaza-spiro[2.5]oct-4-yl]-methanone]	< 6.30	6.30 to 7.00	6.30 to 7.00	< 6.30
N#Cc1ccc(C(=O)N2CCN(c3ccnc4[nH]ccc34)CC23CC3)cc1 [Example 226, 4-[7-(1H-Pyrrolo[2,3-b]pyridin-4-yl)-4,7-diaza-spiro[2.5]octane-4-carbonyl]-benzonitrile]	< 6.30	> 7.00	6.30 to 7.00	< 6.30

The remaining lines, values ahead:

pEC50 [1]	pEC50 [2]	pEC50 [3]	pEC50 [4]	Compound
< 6.30	6.30 to 7.00	> 7.00	< 6.30	COc1cccc(C(=O)N2CCN(c3ncnc4[nH]ccc34)CC23CC3)c1OC [Example 212, (2,3-Dimethoxy-phenyl)-[7-(7H-pyrrolo[2,3-d]pyrimidin-4-yl)-4,7-diaza-spiro[2.5]oct-4-yl]-methanone]
> 7.00	> 7.00	> 7.00	> 7.00	O=C(c1csc2ccccc12)N1CCN(c2ncnc3[nH]ccc23)CC12CC2 [Example 214, Benzo[b]thiophen-3-yl-[7-(7H-pyrrolo[2,3-d]pyrimidin-4-yl)-4,7-diaza-spiro[2.5]oct-4-yl]-methanone]
6.30 to 7.00	> 7.00	> 7.00	6.30 to 7.00	O=C(c1ccc(-c2ccccc2)s1)N1CCN(c2ncnc3[nH]ccc23)CC12CC2 [Example 215, (5-Phenyl-thiophen-2-yl)-[7-(7H-pyrrolo[2,3-d]pyrimidin-4-yl)-4,7-diaza-spiro[2.5]oct-4-yl]-methanone]
< 6.30	6.30 to 7.00	6.30 to 7.00	< 6.30	COc1ncccc1C(=O)N1CCN(c2ncnc3[nH]ccc23)CC12CC2 [Example 216, (2-Methoxy-pyridin-3-yl)-[7-(7H-pyrrolo[2,3-d]pyrimidin-4-yl)-4,7-diaza-spiro[2.5]oct-4-yl]-methanone]
6.30 to 7.00	6.30 to 7.00	6.30 to 7.00	< 6.30	N#CCC(=O)N1CCN(c2ccnc3[nH]ccc23)CC12CC2 [Example 220, 3-Oxo-3-[7-(1H-pyrrolo[2,3-b]pyridin-4-yl)-4,7-diaza-spiro[2.5]oct-4-yl]-propionitrile]
6.30 to 7.00	> 7.00	> 7.00	< 6.30	O=C(c1ccccc1)N1CCN(c2ccnc3[nH]ccc23)CC12CC2 [Example 221, Phenyl-[7-(1H-pyrrolo[2,3-b]pyridin-4-yl)-4,7-diaza-spiro[2.5]oct-4-yl]-methanone]
< 6.30	6.30 to 7.00	6.30 to 7.00	< 6.30	O=C(c1cccnc1)N1CCN(c2ccnc3[nH]ccc23)CC12CC2 [Example 223, Pyridin-3-yl-[7-(1H-pyrrolo[2,3-b]pyridin-4-yl)-4,7-diaza-spiro[2.5]oct-4-yl]-methanone]
< 6.30	6.30 to 7.00	6.30 to 7.00	< 6.30	O=C(c1ccncc1)N1CCN(c2ccnc3[nH]ccc23)CC12CC2 [Example 224, Pyridin-4-yl-[7-(1H-pyrrolo[2,3-b]pyridin-4-yl)-4,7-diaza-spiro[2.5]oct-4-yl]-methanone]
< 6.30	6.30 to 7.00	> 7.00	< 6.30	O=C(c1cnccn1)N1CCN(c2ccnc3[nH]ccc23)CC12CC2 [Example 225, Pyrazin-2-yl-[7-(1H-pyrrolo[2,3-b]pyridin-4-yl)-4,7-diaza-spiro[2.5]oct-4-yl]-methanone]
6.30 to 7.00	> 7.00	> 7.00	< 6.30	N#Cc1cccc(C(=O)N2CCN(c3ccnc4[nH]ccc34)CC23CC3)c1 [Example 227, 3-[7-(1H-Pyrrolo[2,3-b]pyridin-4-yl)-4,7-diaza-spiro[2.5]octane-4-carbonyl]-benzonitrile]
< 6.30	6.30 to 7.00	> 7.00	< 6.30	Cc1ccsc1C(=O)N1CCN(c2ccnc3[nH]ccc23)CC12CC2 [Example 228, (3-Methyl-thiophen-2-yl)-[7-(1H-pyrrolo[2,3-b]pyridin-4-yl)-4,7-diaza-spiro[2.5]oct-4-yl]-methanone]
